From patent US12440496B2, “Natriuretic peptide receptor a agonists useful for the treatment of cardiometabolic diseases, kidney disease and diabetes” (Merck Sharp & Dohme LLC, priority 2019, dated 2025) come the findings set out here.

This assay concerns the target T1, hNPRA (Homo sapiens, UniProt P16066).
T1 construct: expressed in transfected cells
T1 sequence (P16066 33-1061): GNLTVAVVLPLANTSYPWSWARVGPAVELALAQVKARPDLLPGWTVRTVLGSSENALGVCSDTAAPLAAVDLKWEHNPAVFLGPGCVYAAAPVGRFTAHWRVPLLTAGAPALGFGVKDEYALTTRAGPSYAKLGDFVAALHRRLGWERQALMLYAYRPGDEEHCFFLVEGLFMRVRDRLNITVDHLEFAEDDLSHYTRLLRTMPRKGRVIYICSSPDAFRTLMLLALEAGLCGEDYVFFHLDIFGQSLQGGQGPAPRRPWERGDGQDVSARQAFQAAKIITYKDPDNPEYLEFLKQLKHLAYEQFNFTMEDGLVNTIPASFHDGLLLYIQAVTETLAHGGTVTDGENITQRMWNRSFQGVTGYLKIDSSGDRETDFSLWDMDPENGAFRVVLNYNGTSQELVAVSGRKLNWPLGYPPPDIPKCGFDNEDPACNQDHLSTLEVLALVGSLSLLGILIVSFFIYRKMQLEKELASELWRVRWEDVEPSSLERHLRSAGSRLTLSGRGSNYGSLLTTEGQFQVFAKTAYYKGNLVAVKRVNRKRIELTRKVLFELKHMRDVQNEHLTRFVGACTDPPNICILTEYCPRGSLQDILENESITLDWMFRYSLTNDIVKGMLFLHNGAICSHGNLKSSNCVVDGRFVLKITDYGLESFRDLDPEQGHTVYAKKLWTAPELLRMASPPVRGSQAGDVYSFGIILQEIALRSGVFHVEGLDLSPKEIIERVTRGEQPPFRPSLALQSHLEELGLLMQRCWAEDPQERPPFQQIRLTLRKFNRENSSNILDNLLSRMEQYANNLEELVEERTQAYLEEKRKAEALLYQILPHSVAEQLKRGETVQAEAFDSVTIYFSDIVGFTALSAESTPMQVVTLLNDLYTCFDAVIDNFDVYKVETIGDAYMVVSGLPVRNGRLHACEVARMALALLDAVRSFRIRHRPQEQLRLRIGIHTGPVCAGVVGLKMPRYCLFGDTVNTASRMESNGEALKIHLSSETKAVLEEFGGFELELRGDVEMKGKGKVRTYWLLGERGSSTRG
Put plainly: NPRA Functional Cell Assay (cGMP HTRF, NPRA HEK JumpIn stable cells). In kind it is cell-based. Conditions: cGMP production, 1 hour at 37° C., 10-point dose response. Put shortly: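 cGMP HTRF read-out after 1 hour compound treatment at 37° C. of human NPRA-expressing HEK JumpIn cells, 1500 cells/well, in buffer with phosphodiesterase inhibitors IBMX and RO20 (100 uM each). Signal converted to [cGMP] by calibration curve; EC50s fitted by 4-parameter logistic; 50 nM h-ANP as positive response.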
`CC(C)(C)[C@H]1CCc2nc3sc(C(=O)N[C@H](CCN4CCC(O)CC4)c4ccc(-c5ccnc(N)c5)cc4)nc3cc2C1` (racemic) [Example 168, rac-(7S)-7-tert-butyl-N-[rac-(1R)-1-[4-(2-amino-4-pyridyl)phenyl]-3-(4-hydroxy-1-piperidyl)propyl]-5,6,7,8-tetrahydrothiazolo[5,4-b]quinoline-2-carboxamide]: the EC50 is 773 nM. In other words, the sub-micromolar range. The value for `CC(C)(C)[C@H]1CCc2nc3sc(C(=O)N[C@H](CCN4CCC(O)CC4)c4ccc(-c5ncns5)cc4)nc3cc2C1` (racemic) [Example 169, rac-(7S)-7-tert-butyl-N-[rac-(1R)-3-(4-hydroxy-1-piperidyl)-1-[4-(1,2,4-thiadiazol-5-yl)phenyl]propyl]-5,6,7,8-tetrahydrothiazolo[5,4-b]quinoline-2-carboxamide] was 793 nM; that for `Cn1cnnc1-c1ccc([C@@H](CCN2CCC(O)CC2)NC(=O)c2nc3cc4c(nc3s2)CC[C@H](C(C)(C)C)C4)cc1` (racemic) [Example 170, rac-(7S)-7-tert-butyl-N-[rac-(1R)-3-(4-hydroxy-1-piperidyl)-1-[4-(4-methyl-1,2,4-triazol-3-yl)phenyl]propyl]-5,6,7,8-tetrahydrothiazolo[5,4-b]quinoline-2-carboxamide] was 863 nM; that for `Cc1n[nH]cc1-c1ccc([C@@H](CCN2CCC(O)CC2)NC(=O)c2nc3cc4c(nc3s2)CC[C@H](C(C)(C)C)C4)cc1` (racemic) [Example 171, rac-(7S)-7-tert-butyl-N-[rac-(1R)-3-(4-hydroxy-1-piperidyl)-1-[4-(3-methyl-1H-pyrazol-4-yl)phenyl]propyl]-5,6,7,8-tetrahydrothiazolo[5,4-b]quinoline-2-carboxamide] was 913 nM. `CC(C)(C)[C@H]1CCc2nc3sc(C(=O)N[C@H](CCN4CCC(O)CC4)c4ccc(-c5cnc(O)c(C#N)c5)cc4)nc3cc2C1` (racemic) [Example 172, rac-(7S)-7-tert-butyl-N-[rac-(1R)-1-[4-(5-cyano-6-hydroxy-3-pyridyl)phenyl]-3-(4-hydroxypiperidin-1-ium-1-yl)propyl]-5,6,7,8-tetrahydrothiazolo[5,4-b]quinoline-2-carboxamide; 2,2,2-trifluoroacetate]: the EC50 was determined as 925 nM. The result for `Cc1n[nH]c(C)c1-c1ccc([C@@H](CCN2CCC(O)CC2)NC(=O)c2nc3cc4c(nc3s2)CC[C@H](C(C)(C)C)C4)cc1` (racemic) [Example 173, rac-(7S)-7-tert-butyl-N-[rac-(1R)-1-[4-(3,5-dimethyl-1H-pyrazol-4-yl)phenyl]-3-(4-hydroxy-1-piperidyl)propyl]-5,6,7,8-tetrahydrothiazolo[5,4-b]quinoline-2-carboxamide] reads 959 nM; that for `Cc1[nH]cnc1-c1ccc([C@@H](CCN2CCC(O)CC2)NC(=O)c2nc3cc4c(nc3s2)CC[C@H](C(C)(C)C)C4)cc1` (racemic) [Example 174, rac-(7S)-7-tert-butyl-N-[rac-(1R)-3-(4-hydroxy-1-piperidyl)-1-[4-(5-methyl-1H-imidazol-4-yl)phenyl]propyl]-5,6,7,8-tetrahydrothiazolo[5,4-b]quinoline-2-carboxamide], 991 nM; that for `CC(C)(C)[C@H]1CCc2nc3sc(C(=O)N[C@H](CCN4CCC(O)CC4)c4ccc(-c5ccncc5N)cc4)nc3cc2C1` (racemic) [Example 175, rac-(7S)-7-tert-butyl-N-[rac-(1R)-1-[4-(3-amino-4-pyridyl)phenyl]-3-(4-hydroxy-1-piperidyl)propyl]-5,6,7,8-tetrahydrothiazolo[5,4-b]quinoline-2-carboxamide], 1020 nM. Compound `CC(C)(C)[C@H]1CCc2nc3sc(C(=O)N[C@H](CCN4CCC(O)CC4)c4ccc(-c5cnoc5)cc4)nc3cc2C1` (racemic) [Example 176, rac-(7S)-7-tert-butyl-N-[rac-(1R)-3-(4-hydroxypiperidin-1-ium-1-yl)-1-(4-isoxazol-4-ylphenyl)propyl]-5,6,7,8-tetrahydrothiazolo[5,4-b]quinoline-2-carboxamide; 2,2,2-trifluoroacetate] showed an EC50 of 1030 nM. This EC50 and that of the compound before are within 1.5-fold of each other. The value for `Cn1nnnc1-c1ccc([C@@H](CCN2CCC(O)CC2)NC(=O)c2nc3cc4c(nc3s2)CC[C@H](C(C)(C)C)C4)cc1` (racemic) [Example 177, rac-(7S)-7-tert-butyl-N-[rac-(1R)-3-(4-hydroxypiperidin-1-ium-1-yl)-1-[4-(1-methyltetrazol-5-yl)phenyl]propyl]-5,6,7,8-tetrahydrothiazolo[5,4-b]quinoline-2-carboxamide; 2,2,2-trifluoroacetate] was 1150 nM; that for `CC(C)(C)[C@H]1CCc2nc3sc(C(=O)N[C@H](CCN4CCC(O)CC4)c4ccc(-c5nc[nH]c5C#N)cc4)nc3cc2C1` (racemic) [Example 178, rac-(7S)-7-tert-butyl-N-[rac-(1R)-1-[4-(5-cyano-1H-imidazol-4-yl)phenyl]-3-(4-hydroxy-1-piperidyl)propyl]-5,6,7,8-tetrahydrothiazolo[5,4-b]quinoline-2-carboxamide] was 1250 nM; that for `Cn1cncc1-c1ccc([C@@H](CCN2CCC(O)CC2)NC(=O)c2nc3cc4c(nc3s2)CC[C@H](C(C)(C)C)C4)cc1` (racemic) [Example 179, rac-(7S)-7-tert-butyl-N-[rac-(1R)-3-(4-hydroxy-1-piperidyl)-1-[4-(3-methylimidazol-4-yl)phenyl]propyl]-5,6,7,8-tetrahydrothiazolo[5,4-b]quinoline-2-carboxamide] was 1420 nM. The value for `CC(C)(C)[C@H]1CCc2nc3sc(C(=O)N[C@H](CCN4CCC(O)CC4)c4ccc(-c5cnsc5)cc4)nc3cc2C1` (racemic) [Example 180, rac-(7S)-7-tert-butyl-N-[rac-(1R)-3-(4-hydroxy-1-piperidyl)-1-(4-isothiazol-4-ylphenyl)propyl]-5,6,7,8-tetrahydrothiazolo[5,4-b]quinoline-2-carboxamide] was 1440 nM. The result for `CC(C)(C)[C@H]1CCc2nc3sc(C(=O)N[C@H](CCN4CCC(O)CC4)c4ccc(-c5ncc(O)cc5F)cc4)nc3cc2C1` (racemic) [Example 181, rac-(7S)-7-tert-butyl-N-[rac-(1R)-1-[4-(3-fluoro-5-hydroxy-2-pyridyl)phenyl]-3-(4-hydroxypiperidin-1-ium-1-yl)propyl]-5,6,7,8-tetrahydrothiazolo[5,4-b]quinoline-2-carboxamide; 2,2,2-trifluoroacetate] reads 1440 nM. The compound `CC(C)(C)[C@H]1CCc2nc3sc(C(=O)N[C@H](CCN4CCC(O)CC4)c4ccc(-c5cc(=O)[nH]c(=O)[nH]5)cc4)nc3cc2C1` (racemic) [Example 182, rac-(7S)-7-tert-butyl-N-[rac-(1R)-1-[4-(2,4-dioxo-1H-pyrimidin-6-yl)phenyl]-3-(4-hydroxy-1-piperidyl)propyl]-5,6,7,8-tetrahydrothiazolo[5,4-b]quinoline-2-carboxamide] came in with an EC50 of 1610 nM.

`CC(C)(C)[C@H]1CCc2nc3sc(C(=O)N[C@H](CCN4CCC(O)CC4)c4ccc(-c5cnsn5)cc4)nc3cc2C1` (racemic) [Example 183, rac-(7S)-7-tert-butyl-N-[rac-(1R)-3-(4-hydroxy-1-piperidyl)-1-[4-(1,2,5-thiadiazol-3-yl)phenyl]propyl]-5,6,7,8-tetrahydrothiazolo[5,4-b]quinoline-2-carboxamide] yielded an EC50 of 1660 nM. As for `CC(C)(C)[C@H]1CCc2nc3sc(C(=O)N[C@H](CCN4CCC(O)CC4)c4ccc(-c5cc(F)c(O)c(F)c5)cc4)nc3cc2C1` (racemic) [Example 184, rac-(7S)-7-tert-butyl-N-[rac-(1R)-1-[4-(3,5-difluoro-4-hydroxy-phenyl)phenyl]-3-(4-hydroxypiperidin-1-ium-1-yl)propyl]-5,6,7,8-tetrahydrothiazolo[5,4-b]quinoline-2-carboxamide; 2,2,2-trifluoroacetate], it took 1700 nM to reach a half-maximal effect (EC50). The EC50 values of the last two compounds are within 1.5-fold of each other. The result for `CC(C)(C)[C@H]1CCc2nc3sc(C(=O)N[C@H](CCN4CCC(O)CC4)c4ccc(-c5cncs5)cc4)nc3cc2C1` (racemic) [Example 185, rac-(7S)-7-tert-butyl-N-[rac-(1R)-3-(4-hydroxypiperidin-1-ium-1-yl)-1-(4-thiazol-5-ylphenyl)propyl]-5,6,7,8-tetrahydrothiazolo[5,4-b]quinoline-2-carboxamide; 2,2,2-trifluoroacetate] reads 1920 nM.
